Structures can show the parent of a compound that is named as a salt.
Biological target: Pannexin 1 (Homo sapiens, UniProt Q96RD7)
Sequence (Q96RD7 whole entry, species assumed): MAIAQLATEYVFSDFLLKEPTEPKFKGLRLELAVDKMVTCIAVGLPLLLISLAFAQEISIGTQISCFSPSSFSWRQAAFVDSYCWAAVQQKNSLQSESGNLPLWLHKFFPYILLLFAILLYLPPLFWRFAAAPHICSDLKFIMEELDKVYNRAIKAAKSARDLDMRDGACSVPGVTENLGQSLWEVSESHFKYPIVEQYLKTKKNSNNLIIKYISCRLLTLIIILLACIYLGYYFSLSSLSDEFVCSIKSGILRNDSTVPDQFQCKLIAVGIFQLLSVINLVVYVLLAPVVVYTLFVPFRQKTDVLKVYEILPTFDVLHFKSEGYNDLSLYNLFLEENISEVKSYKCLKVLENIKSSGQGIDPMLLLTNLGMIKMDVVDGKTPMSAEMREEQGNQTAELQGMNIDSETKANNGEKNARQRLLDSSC
Test: not given
Settings: cited from earlier work
For “280: mimetic peptide SRPTEKTIFII [Number 280]”, the “inhibition of Pannexin 1” value is given as “inhibited”. For “281: mimetic peptide GHGDPLHLEEVKC [Number 281]”, the “inhibition of Pannexin 1” value is listed as “inhibited”. In the case of “282: mimetic peptide SSFSWRQAAFVDS [Number 282]”, the “inhibition of Pannexin 1” value is given as “inhibited”. In the case of “283: mimetic peptide WRQAAFVDSY [Number 283]”, the “inhibition of Pannexin 1” value is given as “inhibited”. For `Nc1ncnc2c1ncn2[C@@H]1O[C@H](COP(=O)(O)OP(=O)(O)OP(=O)(O)O)[C@@H](O)[C@H]1O` [ATP], the “inhibition of Pannexin 1” value is given as “inhibits”. For `CCOc1ccc(Nc2ccc(/C(=C3C=C/C(=[N+](/CC)Cc4cccc(S(=O)(=O)[O-])c4)C=C/3C)c3ccc(N(CC)Cc4cccc(S(=O)(=O)[O-])c4)cc3C)cc2)cc1.[Na+]` [Number 256, Acid blue 90, Coomassie Brilliant Blue G], the “inhibition of Pannexin 1” value is given as “most selective and least detrimental Pannexin 1 inhibitor”. For `Nc1ncnc2c1ncn2[C@@H]1O[C@H](COP(=O)(O)OP(=O)(O)OP(=O)(O)O)C(OC(=O)c2ccc(C(=O)c3ccccc3)cc2)C1O` (stereo partly shown) [Number 265, 2′(3′)-O-(4-Benzoylbenzoyl)adenosine 5′-triphosphate triethylammonium salt], the “inhibition of Pannexin 1” value is given as “inhibit Pannexin 1 more effectively than AYP”. For `O=C(O)c1ccccc1Nc1cccc(C(F)(F)F)c1` [flufenamic acid], the “inhibition of Pannexin 1” value is listed as “found to inhibit the channel”.

Test system: dependent rats
Test: not given
Settings: systemic glucocorticoid receptor antagonism; cited from earlier work
For `CC#C[C@]1(O)CC[C@H]2[C@@H]3CCC4=CC(=O)CCC4=C3[C@@H](c3ccc(N(C)C)cc3)C[C@@]21C` [mifepristone], the “escalated alcohol drinking and compulsive response for alcohol” value is listed as “blocked”.

Test system: 11β-HSD1, 11β-HSD2
Test: not given
Settings: 11β-HSD isozyme specificity per cited reference; cited from earlier work
In the case of `O=C(O)CC1(CC(=O)NCc2ccc(F)cc2Cl)CCCC1` [Number 93], the Specificity is given as 11β- HSD1 > 2. For `CC(C)(CC(=O)NC1CC1)CC(=O)N[C@H]1C2CC3CC1C[C@@](O)(C3)C2` [Number 94], the Specificity is given as 11β- HSD1 > 2. For `O=C1CC2(CCN(C(=O)C3(c4ccccc4)CC3)CC2)Oc2ccc(F)cc21` [Number 95], the Specificity is given as 11β- HSD1 > 2. In the case of `O=C(N1CCC2(CCCCC2)C1)C1(c2ccccc2)CC1` [Number 96], the Specificity is listed as 11β- HSD1 > 2. For `COc1ccc(C(=O)N2CCC(c3c[nH]c4ccccc34)C2)c(C)c1` (stereo not shown) [Number 97], the Specificity is given as 11β- HSD1 > 2. For `CC(C)(C(=O)N1CCC(c2c[nH]c3ncccc23)C1)c1ccc(Cl)cc1` (stereo not shown) [Number 98], the Specificity is given as 11β- HSD1 > 2. For `O=C(N1CCC(c2c[nH]cn2)CC1)N1CCCc2ccccc21` [Number 99], the Specificity is listed as 11β- HSD1 > 2. For `COc1ccc(-c2cnc(N3CCN(C(=O)N4CCC(c5cn[nH]c5)C4)c4ccccc43)nc2)cc1` (stereo not shown) [Number 100], the Specificity is given as 11β- HSD1 > 2. In the case of `CC(C)(C)N1CCN(c2ccc(N3CCN(C(=O)N[C@H]4C5CC6CC4C[C@@](C(N)=O)(C6)C5)c4ccccc43)nc2)CC1` [Number 101], the Specificity is listed as 11β- HSD1 > 2. In the case of `COc1cc(C(=O)Nc2ccc(C(=O)N3CCCCC3)c(O)c2)cc(OC)c1OC` [Number 105], the Specificity is given as 11β- HSD1 > 2. For `O=C(Nc1ccc(C(=O)N2CCC[C@H]3CCCC[C@@H]32)c2ccccc12)c1ccc(Cl)cc1Cl` [Number 106], the Specificity is listed as 11β- HSD1 > 2. For `COc1ccc(C(=O)N2CCCC(c3ccccc3)CC2)cc1` (stereo not shown) [Number 107], the Specificity is listed as 11β- HSD1 > 2. For `COC1(C)CCCN(S(=O)(=O)c2ccc(C(C)(C)C)cc2)CC1` (stereo not shown) [Number 108], the Specificity is given as 11β- HSD1 > 2. In the case of `CC(C)(C)n1ncc2c1CCCN([C@H]1C3CC4CC1C[C@@](O)(C4)C3)C2=O` [Number 109], the Specificity is given as 11β- HSD1 > 2. For `CC1(C)CCN([C@H]2C3CC4CC2C[C@@](O)(C4)C3)C(=O)c2cnn(-c3ccc(Cl)cc3)c21` [Number 110], the Specificity is listed as 11β- HSD1 > 2. For `CCN1CCN(C(=O)C23CC4CC(C2)CC(c2ccc(C)cc2)(C4)C3)CC1` [Number 111], the Specificity is given as 11β- HSD1 > 2. In the case of `Cc1ccc(-n2nnnc2SCC(=O)C(C)(C)C)c(C)c1` [Number 112], the Specificity is given as 11β- HSD1 > 2. In the case of `O=C(CSc1nnnn1-c1cccc(Cl)c1)c1ccccc1` [Number 113], the Specificity is listed as 11β- HSD1 > 2. For `CS(=O)(=O)NCCC(=O)N1CCC(c2cc(C(=O)N3CCC[C@H]4CCCC[C@H]43)cs2)CC1` [Number 114], the Specificity is listed as 11β- HSD1 > 2. In the case of `COc1ccc2nc(NS(=O)(=O)c3ccccc3)sc2c1` [Number 115], the Specificity is given as 11β- HSD1 > 2. For `CC(C)(Oc1ccc(Cl)cc1)C(=O)Nc1nnn[nH]1` [Number 116], the Specificity is listed as 11β- HSD1 > 2. For `Cc1nc2c(Cl)c(NS(=O)(=O)c3cc(Cl)ccc3Cl)ccc2s1` [Number 117], the Specificity is given as 11β- HSD1 > 2. In the case of `O=C(Nc1ccc2scnc2c1)c1cc(Cl)cc(Cl)c1` [Number 118], the Specificity is listed as 11β- HSD1 > 2. For `CN(Cc1cccs1)C(=O)C12CC3CC(CC(C3)C1)C2` [Number 119], the Specificity is given as 11β- HSD1 > 2. In the case of `Cc1ccc(C2(C(=O)N(C)Cc3cccs3)CC2)cc1` [Number 120], the Specificity is listed as 11β- HSD1 > 2. In the case of `CN(C)C(=O)c1ccc(COCC(=O)C23CC4CC(CC(C4)C2)C3)cc1` [Number 121], the Specificity is listed as 11β- HSD1 > 2. For `COc1cccc(C(=O)CSc2nnc(C)s2)c1` [Number 123], the Specificity is given as 11β- HSD1 > 2. In the case of `Cn1cnnc1SCC(=O)C12CC3CC(CC(C3)C1)C2` [Number 124], the Specificity is given as 11β- HSD1 > 2. In the case of `Cn1c(N2CCN(S(=O)(=O)c3ccc(C(C)(C)C)cc3)CC2)nc2ccccc21` [Number 125], the Specificity is given as 11β- HSD1 > 2. In the case of `Cc1ccc(S(=O)(=O)N2CCN(c3nc4ccccc4n3C)CC2)cc1` [Number 126], the Specificity is listed as 11β- HSD1 > 2. For `CC1(C)[C@@H](O)CC[C@]2(C)[C@H]3C(=O)C=C4[C@@](C)(CC[C@@]5(C)CC[C@@]6(C)C[C@@]45OC6=O)[C@]3(C)CC[C@@H]12` [Number 248], the Specificity is given as 11β- HSD1 > 2. For `CC(=O)O[C@H]1CC[C@]2(C)[C@H]3C(=O)C=C4[C@H]5C[C@@](C)(NS(C)(=O)=O)CC[C@]5(C)CC[C@@]4(C)[C@]3(C)CC[C@H]2C1(C)C` [Number 251], the Specificity is given as 11β- HSD1 > 2.

Same assay, conditions: cited from earlier work
For `O=S1(=O)N=C(NC2CCCCC2)O[C@H]2CCCC[C@H]21` [Number 102], the Specificity is given as 11β- HSD1 > 2. For `CC1(C)OC(N[C@@H](CCO)c2ccc(F)cc2)=NS(=O)(=O)C1(C)C` [Number 103], the Specificity is given as 11β- HSD1 > 2. For `O=C(Nc1cccc(C(=O)N2CCC[C@H]3CCCC[C@@H]32)c1)c1ccccc1` [Number 104], the Specificity is listed as 11β- HSD1 > 2.

Test system: C57BL/6J mice
Test: Mouse drinking in the dark (DID) binge-like drinking
Assay type: in vivo
Settings: first 2 h vs whole 4 h session
Description: The DID paradigm capitalizes on the circadian rhythm in drinking of mice utilizing a discrete time of exposure to ethanol to obtain pharmacologically significant ethanol drinking in a four-day procedure (114, 115). It is considered a preclinical model of binge alcohol drinking (116). Blood ethanol levels of C57BL/6J mice in DID are reliably over 100 mg % following the final drinking bout and produce behavioral intoxication in C57BL/6J mice (115). In the DID paradigm, the water bottle is replaced with a bottle containing 20% ethanol for 2 hours in the home cage 3 hours after lights go off. The design involves 3 daily drinking sessions of 2 hours and a fourth of 4 hours (114, 115).
With `CC1(C)[C@@H](OC(=O)CCC(=O)O)CC[C@]2(C)[C@H]3C(=O)C=C4[C@@H]5C[C@@](C)(C(=O)O)CC[C@]5(C)CC[C@@]4(C)[C@]3(C)CC[C@@H]12` [Number 4, 18α-glycyrrhetinic acid 3β-O-hemisuccinate] the “time course of the effect on ethanol intake within the DID session” value was “more pronounced in the first 2 hours”.

Same assay, conditions: mice, 4 h drinking session, vs saline vehicle
For `CC1(C)[C@@H](OC(=O)CCC(=O)O)CC[C@]2(C)[C@H]3C(=O)C=C4[C@@H]5C[C@@](C)(C(=O)O)CC[C@]5(C)CC[C@@]4(C)[C@]3(C)CC[C@@H]12` [Number 4, 18α-glycyrrhetinic acid 3β-O-hemisuccinate], the “ethanol intake in the DID paradigm” value was “reduce”.
